Assay [1] concerns the target T1, human HDAC11 (Homo sapiens, UniProt Q96DB2).
T1 sequence (Q96DB2 1-347): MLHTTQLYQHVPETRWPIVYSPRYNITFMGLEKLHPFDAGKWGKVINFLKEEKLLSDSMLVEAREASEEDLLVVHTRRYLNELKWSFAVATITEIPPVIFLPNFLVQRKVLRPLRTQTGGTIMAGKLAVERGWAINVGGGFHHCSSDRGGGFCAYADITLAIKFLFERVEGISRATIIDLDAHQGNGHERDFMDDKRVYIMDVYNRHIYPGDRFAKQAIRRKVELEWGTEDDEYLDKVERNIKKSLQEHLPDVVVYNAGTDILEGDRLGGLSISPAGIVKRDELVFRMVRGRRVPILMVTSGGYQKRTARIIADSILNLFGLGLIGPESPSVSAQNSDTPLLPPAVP
Description: Continuous fluorescence HDAC11 activity assay with peptidic substrate 1. In kind it is biochemical.

Assay [2] deals with T1, human HDAC11. Description: Discontinuous fluorescence-based. It counts as biochemical.

One may read the IC50 as the concentration needed to halve the response being measured. Read a high IC50 as lower potency. Turning to `Nc1ccccc1NC(=O)c1ccc(CNc2nccc(-c3cccnc3)n2)cc1` [mocetinostat, N-(2-aminophenyl)-4-(4-pyridin-3-ylpyrimidin-2-ylamino)methylbenzamide], the IC50 in assay [1] and in assay [2] was more than 40 µM in each case.
The molecule `C/C=C1\NC(=O)[C@H]2CSSCC/C=C/[C@H](CC(=O)N[C@H](C(C)C)C(=O)N2)OC(=O)[C@H](C(C)C)NC1=O` [romidepsin] displayed an IC50 in assay [2] of 4.81 ± 0.04 µM.
Take `CCCC(CCC)C(=O)O` [valproate]: the IC50 in assay [1] and in assay [2] was more than 40 µM each time.

These data come from publication PMC6882135 (ACS Omega, 2019).
